Source: publication PMC5775428, “Towards an experimental classification system for membrane active peptides” (Scientific Reports, 2018)
Read-outs that look alike come from different tables or passages of the source. No end group written: not given here.

Experiments:
[1] = system: Cryptococcus neoformans
Experimental: (§1) Antimicrobial activity was tested against three categories of human and plant pathogenic microorganisms: Gram-positive (Bacillus subtilis, Bacillus cereus, Staphylococcus aureus), Gram-negative (Escherichia coli, Pseudomonas aeruginosa, Erwinia carotovora, Pseudomonas syringae pv. tabaci, Xanthomonas campestris pv. citri) and yeasts (Candida albicans, Cryptococcus neoformans), as previously reported. […] The full list of peptide MICs was published in an accompanying paper, and is available in the current publication as supplementary dataset (Supplementary dataset 01).
(§2) The determination of the minimum inhibitory concentration (MIC) of peptides was performed as described in “Encrypted Antimicrobial Peptides from Plant Proteins”[7]. Briefly, MICs were determined following protocols M7-A10 and M27-A3 from Clinical & Laboratory Standards Institute (CLSI) for bacteria and yeasts, respectively. Different concentrations of IAPs (0.5 to 256 μM) were tested against several microorganisms in a final volume of 100 µL. Three biological repetitions, with 2 technical replicates each, were performed for each test, on polystyrene flat-bottom 96 wells microplates. The minimum inhibitory concentration (MIC) was defined as the concentration at which no cells were detected when visualized by optical microscopy. Please refer to the literature[7] for further details of the microbiological assays.

[2] = system: Staphylococcus aureus
Experimental: as §1, §2

[3] = system: Escherichia coli
Experimental: as §1, §2

[4] = system: Pseudomonas syringae pv. tabaci
Experimental: as §1, §2

[5] = system: Pseudomonas aeruginosa
Experimental: as §1, §2

[6] = system: Xanthomonas campestris; conditions: for Minimum inhibitory concentration, Average: average of triplicates
Experimental: as §1, §2

[7] = system: Bacillus cereus
Experimental: as §1, §2

[8] = system: Candida albicans
Experimental: as §1, §2

[9] = system: Bacillus subtilis
Experimental: as §1, §2

[10] = system: Erwinia carotovora
Experimental: as §1, §2

[11] = Cryptococcus neoformans, CLSI M27-A3, triplicate 1
[12] = Cryptococcus neoformans, average of triplicates
[13] = Cryptococcus neoformans, triplicate 2
[14] = Cryptococcus neoformans, triplicate 3
[15] = Staphylococcus aureus, CLSI M7-A10, triplicate 1
[16] = Staphylococcus aureus, average of triplicates
[17] = Staphylococcus aureus, triplicate 2
[18] = Staphylococcus aureus, triplicate 3
[19] = Escherichia coli, CLSI M7-A10, triplicate 1
[20] = Escherichia coli, average of triplicates
[21] = Pseudomonas syringae pv. tabaci, CLSI M7-A10, triplicate 1
[22] = Pseudomonas syringae pv. tabaci, average of triplicates
[23] = Pseudomonas syringae pv. tabaci, triplicate 2
[24] = Pseudomonas syringae pv. tabaci, triplicate 3
[25] = Bacillus cereus, CLSI M7-A10, triplicate 1
[26] = Bacillus cereus, average of triplicates
[27] = Candida albicans, CLSI M27-A3, 0.5 to 256 μM tested, triplicate 1, also published in ref 7
[28] = Candida albicans, average of triplicates
[29] = Bacillus subtilis, CLSI M7-A10, triplicate 1
[30] = Bacillus subtilis, average of triplicates
[31] = Bacillus subtilis, triplicate 2
[32] = Bacillus subtilis, triplicate 3
[33] = Erwinia carotovora, CLSI M7-A10, triplicate 1
[34] = Erwinia carotovora, average of triplicates
[35] = Erwinia carotovora, triplicate 2
[36] = Erwinia carotovora, triplicate 3
[37] = Pseudomonas aeruginosa, CLSI M7-A10, triplicate 1
[38] = Pseudomonas aeruginosa, average of triplicates
[39] = Pseudomonas aeruginosa, triplicate 2
[40] = Pseudomonas aeruginosa, triplicate 3

Row | Substance | Minimum inhibitory concentration [1, 11] [µM] | Minimum inhibitory concentration, Average [1, 12] [µM] | Minimum inhibitory concentration [1, 13] [µM] | Minimum inhibitory concentration [1, 14] [µM] | Minimum inhibitory concentration [2, 15] [µM] | Minimum inhibitory concentration, Average [2, 16] [µM] | Minimum inhibitory concentration [2, 17] [µM] | Minimum inhibitory concentration [2, 18] [µM] | Minimum inhibitory concentration [3, 19] [µM] | Minimum inhibitory concentration, Average [3, 20] [µM] | Minimum inhibitory concentration ([3]; Escherichia coli, triplicate 2) [µM] | Minimum inhibitory concentration ([3]; Escherichia coli, triplicate 3) [µM] | Minimum inhibitory concentration ([6]; CLSI M7-A10, triplicate 1) [µM] | Minimum inhibitory concentration, Average [6] [µM] | Minimum inhibitory concentration ([6]; triplicate 2) [µM] | Minimum inhibitory concentration ([6]; triplicate 3) [µM] | Minimum inhibitory concentration [9, 29] [µM] | Minimum inhibitory concentration, Average [9, 30] [µM] | Minimum inhibitory concentration [9, 31] [µM] | Minimum inhibitory concentration [9, 32] [µM] | other results
1 | GLLFKELQKLIRYQIFIGK [Tc10] | 64 | 64.0 | 64 | 64 | 512 | 512.0 | 512 | 512 | 16 | 26.7 | 32 | 32 | 128 | 128.0 | 128 | 128 | 16 | 16.0 | 16 | 16 | Minimum inhibitory concentration [4, 21]: 512 µM; Minimum inhibitory concentration, Average [4, 22]: 512.0 µM; Minimum inhibitory concentration [4, 23]: 512 µM; Minimum inhibitory concentration [4, 24]: 512 µM; Minimum inhibitory concentration [5]: 128 µM; Minimum inhibitory concentration, Average [5]: 128.0 µM; Minimum inhibitory concentration [7, 25]: 512 µM; Minimum inhibitory concentration, Average [7, 26]: 512.0 µM; Minimum inhibitory concentration ([7]; Bacillus cereus, triplicate 2): 512 µM; Minimum inhibitory concentration ([7]; Bacillus cereus, triplicate 3): 512 µM; Minimum inhibitory concentration [8, 27]: 64 µM; Minimum inhibitory concentration, Average [8, 28]: 64.0 µM; Minimum inhibitory concentration ([8]; Candida albicans, triplicate 2): 64 µM; Minimum inhibitory concentration ([8]; Candida albicans, triplicate 3): 64 µM; Minimum inhibitory concentration [10, 33]: 512 µM; Minimum inhibitory concentration, Average [10, 34]: 512.0 µM; Minimum inhibitory concentration [10, 35]: 512 µM; Minimum inhibitory concentration [10, 36]: 512 µM
2 | GLWSTIKQKGKEAAIAAAKAAGQAALGAL-NH2 [DS01, Dermaseptin DS01, reference compound] | – | – | – | – | – | – | – | – | – | – | – | – | – | 0.5 | – | – | – | – | – | – | Minimum inhibitory concentration, Average [1]: 8.0 µM; Minimum inhibitory concentration, Average [2]: 8.0 µM; Minimum inhibitory concentration, Average [3]: 1.0 µM; Minimum inhibitory concentration, Average [4]: 1.0 µM; Minimum inhibitory concentration, Average [5]: 2.0 µM; Minimum inhibitory concentration, Average [7]: 16.0 µM; Minimum inhibitory concentration, Average [8]: 4.0 µM; Minimum inhibitory concentration, Average [9]: 1.0 µM; Minimum inhibitory concentration, Average [10]: 0.5 µM
3 | GLYNFIKVLGRTVFGLYKQF [At04] | 64 | 64.0 | 64 | 64 | 16 | 16.0 | 16 | 16 | – | – | – | – | 512 | 512.0 | 512 | 512 | 256 | 256.0 | 256 | 256 | Minimum inhibitory concentration [3]: 512 µM; Minimum inhibitory concentration, Average [3]: 512.0 µM; Minimum inhibitory concentration [4]: 512 µM; Minimum inhibitory concentration, Average [4]: 512.0 µM; Minimum inhibitory concentration [5]: 512 µM; Minimum inhibitory concentration, Average [5]: 512.0 µM; Minimum inhibitory concentration [7]: 512 µM; Minimum inhibitory concentration, Average [7]: 512.0 µM; Minimum inhibitory concentration [8]: 512 µM; Minimum inhibitory concentration, Average [8]: 512.0 µM; Minimum inhibitory concentration [10]: 512 µM; Minimum inhibitory concentration, Average [10]: 512.0 µM
4 | GSLHGFMYKYLKNMVLNLF [Tc06] | 8 | 10.7 | 8 | 16 | 8 | 13.3 | 16 | 16 | 32 | 32.0 | 32 | 32 | 64 | 64.0 | 64 | 64 | 16 | 16.0 | 16 | 16 | Minimum inhibitory concentration [4, 21]: 16 µM; Minimum inhibitory concentration, Average [4, 22]: 16.0 µM; Minimum inhibitory concentration [4, 23]: 16 µM; Minimum inhibitory concentration [4, 24]: 16 µM; Minimum inhibitory concentration [5, 37]: 16 µM; Minimum inhibitory concentration, Average [5, 38]: 26.7 µM; Minimum inhibitory concentration [5, 39]: 32 µM; Minimum inhibitory concentration [5, 40]: 32 µM; Minimum inhibitory concentration [7, 25]: 64 µM; Minimum inhibitory concentration, Average [7, 26]: 64.0 µM; Minimum inhibitory concentration ([7]; Bacillus cereus, triplicate 2): 64 µM; Minimum inhibitory concentration ([7]; Bacillus cereus, triplicate 3): 64 µM; Minimum inhibitory concentration [8, 27]: 4 µM; Minimum inhibitory concentration, Average [8, 28]: 4.0 µM; Minimum inhibitory concentration ([8]; Candida albicans, triplicate 2): 4 µM; Minimum inhibitory concentration ([8]; Candida albicans, triplicate 3): 4 µM; Minimum inhibitory concentration [10, 33]: 128 µM; Minimum inhibitory concentration, Average [10, 34]: 128.0 µM; Minimum inhibitory concentration [10, 35]: 128 µM; Minimum inhibitory concentration [10, 36]: 128 µM
5 | GSLHGFMYKYLKNMVLTLF [At01] | 16 | 16.0 | 16 | 16 | 16 | 16.0 | 16 | 16 | 64 | 64.0 | 64 | 64 | 128 | 128.0 | 128 | 128 | 16 | 16.0 | 16 | 16 | Minimum inhibitory concentration [4, 21]: 16 µM; Minimum inhibitory concentration, Average [4, 22]: 16.0 µM; Minimum inhibitory concentration [4, 23]: 16 µM; Minimum inhibitory concentration [4, 24]: 16 µM; Minimum inhibitory concentration [5, 37]: 32 µM; Minimum inhibitory concentration, Average [5, 38]: 32.0 µM; Minimum inhibitory concentration [5, 39]: 32 µM; Minimum inhibitory concentration [5, 40]: 32 µM; Minimum inhibitory concentration [7]: 128 µM; Minimum inhibitory concentration, Average [7]: 128.0 µM; Minimum inhibitory concentration [8, 27]: 16 µM; Minimum inhibitory concentration, Average [8, 28]: 16.0 µM; Minimum inhibitory concentration ([8]; Candida albicans, triplicate 2): 16 µM; Minimum inhibitory concentration ([8]; Candida albicans, triplicate 3): 16 µM; Minimum inhibitory concentration [10, 33]: 256 µM; Minimum inhibitory concentration, Average [10, 34]: 256.0 µM; Minimum inhibitory concentration [10, 35]: 256 µM; Minimum inhibitory concentration [10, 36]: 256 µM
